In US20250082656A1, “DOSAGE REGIMENS FOR TREATMENT OF DENGUE INFECTION” (Atea Pharmaceuticals, Inc., priority 2022, published 2025):
Like-named read-outs stand apart in the source and are kept apart here.

Legend:
[1] = Plasma PK after single oral dose of AT-752, rats; type: in vivo, SD rats; details: Rat, single oral AT-752 300 mg/kg, plasma
Procedure: Male SD rats were administered 300 mg/kg Compound 2 (AT-752). Blood samples were collected up to 24 hrs. post dose, plasma separated and analyzed for Compound 1 (AT-281), Compound 3 (AT-551), and Compound 6 (AT-273) by LC-MS/MS. Data are express as mean+/−SD (n=3-5/time point). The x-axis is time post the dose measured in hours and the y-axis is the plasma concentration of the metabolites measured in nanomoles/mL). The experimental procedure is provided in Example 14.
Male naïve SD rats (Beijing Vital River Laboratory Animals Co. Ltd., China) were administered a dose of AT-752 at 300 mg/kg in 40% PEG400, 10% solutol HS15, 50% 100 mM citrate buffer, pH 4.5 (v/v) by oral gavage. Blood samples (n=4) were collected at 1, 2, 4, 8, 12 and 24 h post-dose, plasma separated and stored at −70° C. […] For PBMCs, nine male naïve SD rats were administered a dose of Compound 2 (AT-752) (at a Compound 1 (AT-281) equivalent dose of 300 mg/kg) by oral gavage.
(§1) Pharmacokinetic measurements for FIGS. 11, 12, 13, 14, and 15 were analyzed using LC-MS/MS according to the protocol described herein. Plasma samples were prepared for MS analysis by adding internal standards and extracting with 20 volumes chilled ACN. After vortex (800 rpm for 10 min) and centrifugation (4,000 rpm, 15 min, 4° C.), the supernatants (25 μL) were diluted with an equal volume of H2O, mixed and spun again. After adding internal standards, the PBMC samples (10^6 cells) were lyzed with 300 μL MeOH/H2O (70:30, v/v) and 40 mM dibutylammonium acetate (DBAA), mixed by vortex and centrifuged (12,000 rpm, 15 min, 4° C.). Aliquots of the supernatants (35 μL) were dried under nitrogen and reconstituted in H2O, then mixed and spun again. […] A binary nonlinear gradient with mobile phases A (0.1% formic acid in water) and B (0.1% formic acid in ACN) were used to elute samples at 0.8 mL/min, with a run time of 5 min. […] A binary nonlinear gradient with mobile phases A (0.001% NHr H2O, 0.18 mM DBAA in H2O) and B (10 mM N,N-dimethyl-hexylamine, 3 mM NH4OAc in ACN/H2O (50.50, v/v)) were used to elute samples at 0.5 mL/min, with a run time of 3 min. Standards in 50% MeOH were used for calibration. […] Internal standards (ISS) as described previously (Good et al., Preclinical evaluation of AT-527, a novel guanosine nucleotide prodrug with potent, pan-genotypic activity against hepatitis C virus. PLos One 15:e02271045) were used to correct for variations in recovery.
(§2) Data analysis of the pharmacokinetic data generated according to Example 21 and presented in FIGS. 11, 12, 13, 14, and 15 was analyzed according to the procedure described herein. Plasma concentrations of Compound 1 (AT-281), Compound 3 (AT-551) and Compound 6 (AT-273) were subjected to non-compartmental pharmacokinetic analysis using Phoenix WinNonlin software (version 6.3 or above, Pharsight, Mountain View, CA). The linear/log trapezoidal rule was applied in obtaining the PK parameters.

[2] = Plasma PK after single oral dose of AT-752, monkeys; type: in vivo, cynomolgus monkeys; details: Monkey, single oral AT-752 300 mg/kg, plasma
Procedure: Male cynomolgus monkeys were administered 300 mg/kg Compound 2 (AT-752). Blood samples were collected up to 24 hrs. post dose, plasma separated and analyzed for Compound 1 (AT-281), Compound 3 (AT-551), and Compound 6 (AT-273) by LC-MS/MS. Data are express as mean+/−SD (n=3-5/time point). The x-axis is time post the dose measured in hours and the y-axis is the plasma concentration of the metabolites measured in nanomoles/mL). The experimental procedure is provided in Example 14.
Male non-naïve cynomolgus monkeys (Hainan Jingang Laboratory Animal Co. Ltd., China), at least 2 kg body weight, were individually housed during the study in stainless steel mesh cages, provided ad libitum access to RO water, fed twice daily (except on the day of dosing when they were fed once) with ˜60 g Certified Monkey Diet each feed (Beijing Vital Keao Feed Co., Ltd., Beijing, China) and given daily treats of fresh fruit. They (n=5) were administered a dose of Compound 2 (AT-752) at 300 mg/kg in 40% PEG400, 10% solutol HS15, 50% 100 mM citrate buffer, pH 4.5 (v/v) by oral gavage, and blood samples (˜0.5 mL) were collected at 1, 2, 4, 8, 12 and 24 h post dose. Plasma was separated at each time point for pharmacokinetics, and stored at −70° C. […] Separately, three monkeys were given an oral dose of Compound 2 (AT-752) as powder in capsules at 60 mg/kg ([…] (AT-281) equivalent dose of 55 mg/kg), and blood samples collected at 12, 24 and 48 h post dose.
as §1, §2

[3] = Pharmacokinetic study in SAD cohorts; type: in vivo, human; details: for dose proportionality of plasma exposure: dose range 250 to 1500 mg; for Urine Elimination: following single oral administration of Compound 2 at 250 to 1500 mg; for AUCInf / Cmax / T1/2 / Tmax: human plasma; for CLR: human
Procedure: as §1, §2

[4] = steady-state, human plasma; for AUCtau / Cmax: mean±SD; for Tmax: median (minimum-maximum)
[5] = Plasma PK after single oral dose of AT-752, mice; details: Mouse, single oral AT-752 420 mg/kg
[6] = single oral Compound 2 250 mg, fasting
[7] = single oral Compound 2 500 mg, fasting
[8] = single oral Compound 2 500 mg, fed
[9] = single oral Compound 2 500 mg, fed (high-fat/high-calorie meal)
[10] = single oral Compound 2 1000 mg, South/Southeast/East Asian origin
[11] = single oral Compound 2 1000 mg, fasting
[12] = single oral Compound 2 1000 mg, patients of South/Southeast/East Asian origin
[13] = single oral Compound 2 1500 mg, fasting

CNc1nc(N)nc2c1ncn2C1OC(COP(=O)(O)NC(C)C(=O)O)C(O)C1(C)F (stereo not drawn) [Compound 3]
AUC0-24 h [1]: 56.5 µM·h
Cmax [1]: 16.5 ± 10.8 µM
AUC0-24 h [2]: 9.7 ± 2.2 µM·h
Cmax [2]: 2 ± 0.8 µM
Tmax [2]: 2.0 ± 0.0 h
dose proportionality of plasma exposure [3]: greater than dose-proportional manner
Urine Elimination [3]: < 1%
AUCInf [3, 6]: 302 ± 71 ng·h/mL
Cmax [3, 6]: 89 ± 36 ng/mL
T1/2 [3, 6]: 2.1 ± 0.3 h
Tmax [3, 6]: 1.0 (0.8-2.0) h
AUCInf [3, 7]: 898 ± 437 ng·h/mL
Cmax [3, 7]: 231 ± 155 ng/mL
T1/2 [3, 7]: 2.4 ± 0.5 h
Tmax [3, 7]: 1.0 (0.8-8.0) h
AUCInf [3, 8]: 737 ± 289 ng·h/mL
T1/2 [3, 8]: 2.3 ± 0.4 h
Tmax [3, 8]: 3.1 (3.0-4.0) h
Cmax [3, 9]: 154 ± 84 ng/mL
AUCInf [3, 10]: 3320 ± 1630 ng·h/mL
T1/2 [3, 10]: 2.0 ± 0.3 h
Tmax [3, 10]: 0.9 (0.5-2.0) h
AUCInf [3, 11]: 2330 ± 1060 ng·h/mL
Cmax [3, 11]: 695 ± 468 ng/mL
T1/2 [3, 11]: 2.2 ± 0.4 h
Tmax [3, 11]: 0.8 (0.5-2.0) h
Cmax [3, 12]: 895 ± 418 ng/mL
AUCInf [3, 13]: 4100 ± 494 ng·h/mL
Cmax [3, 13]: 1080 ± 217 ng/mL
T1/2 [3, 13]: 3.2 ± 1.2 h
Tmax [3, 13]: 1.5 (0.8-2.0) h
CLR [3, 6]: 2.0 ± 0.3 L/h
CLR [3, 7]: 2.1 ± 0.6 L/h
CLR [3, 8]: 2.1 ± 0.4 L/h
CLR [3, 10]: 2.1 ± 0.6 L/h
CLR [3, 11]: 2.1 ± 0.6 L/h
CLR [3, 13]: 1.9 ± 0.4 L/h
AUCtau ([4]; Compound 2 750 mg BID): 1330 ± 503 ng·h/mL
Cmax ([4]; Compound 2 750 mg BID): 365 ± 159 ng/mL
Tmax ([4]; Compound 2 750 mg BID): 1.0 (0.8-2.0) h
AUCtau ([4]; Compound 2 750 mg TID): 944 ± 173 ng·h/mL
Cmax ([4]; Compound 2 750 mg TID): 245 ± 30 ng/mL
Tmax ([4]; Compound 2 750 mg TID): 1.5 (0.8-2.0) h
AUCtau ([4]; Compound 2 1000 mg QD): 1650 ± 498 ng·h/mL
Cmax ([4]; Compound 2 1000 mg QD): 392 ± 143 ng/mL
Tmax ([4]; Compound 2 1000 mg QD): 1.0 (0.8-2.0) h
AUC0-24 h [5]: 58.7 ± 13.3 µM·h
Cmax [5]: 45.1 ± 12 µM
Tmax [5]: 0.5 ± 0.0 h

CNc1nc(N)nc2c1ncn2[C@@H]1O[C@H](CO)[C@@H](O)[C@@]1(C)F [Compound 7]
dose proportionality of plasma exposure [3]: dose-proportional manner
Urine Elimination [3]: 10.7-17.9%
AUCInf [3, 6]: 2890 ± 680 ng·h/mL
Cmax [3, 6]: 446 ± 121 ng/mL
T1/2 [3, 6]: 16.9 ± 8.6 h
Tmax [3, 6]: 2.1 (2.0-3.0) h
AUCInf [3, 7]: 5480 ± 1630 ng·h/mL
Cmax [3, 7]: 765 ± 307 ng/mL
T1/2 [3, 7]: 15.1 ± 6.2 h
Tmax [3, 7]: 1.0 (0.8-4.0) h
AUCInf [3, 8]: 4310 ± 1400 ng·h/mL
T1/2 [3, 8]: 11.2 ± 4.9 h
Tmax [3, 8]: 4.0 (3.0-6.1) h
Cmax [3, 9]: 488 ± 324 ng/mL
AUCInf [3, 10]: 14000 ± 4210 ng·h/mL
T1/2 [3, 10]: 14.7 ± 10.1 h
Tmax [3, 10]: 1.5 (0.8-2.0) h
AUCInf [3, 11]: 10300 ± 3070 ng·h/mL
Cmax [3, 11]: 1640 ± 474 ng/mL
T1/2 [3, 11]: 12.4 ± 10.7 h
Tmax [3, 11]: 0.9 (0.8-3.0) h
Cmax [3, 12]: 2010 ± 489 ng/mL
AUCInf [3, 13]: 16700 ± 3780 ng·h/mL
Cmax [3, 13]: 2030 ± 600 ng/mL
T1/2 [3, 13]: 12.5 ± 3.8 h
Tmax [3, 13]: 2.0 (1.0-2.0) h
CLR [3, 6]: 13.7 ± 1.6 L/h
CLR [3, 7]: 13.6 ± 5.4 L/h
CLR [3, 8]: 12.5 ± 2.8 L/h
CLR [3, 10]: 13.4 ± 2.5 L/h
CLR [3, 11]: 14.2 ± 3.8 L/h
CLR [3, 13]: 15.0 ± 2.4 L/h
AUCtau ([4]; Compound 2 750 mg BID): 7960 ± 2970 ng·h/mL
Cmax ([4]; Compound 2 750 mg BID): 1470 ± 404 ng/mL
Tmax ([4]; Compound 2 750 mg BID): 1.5 (0.8-2.2) h
AUCtau ([4]; Compound 2 750 mg TID): 22300 ± 14100 ng·h/mL
Cmax ([4]; Compound 2 750 mg TID): 1600 ± 640 ng/mL
Tmax ([4]; Compound 2 750 mg TID): 1.5 (1.0-2.0) h
AUCtau ([4]; Compound 2 1000 mg QD): 8290 ± 2290 ng·h/mL
Cmax ([4]; Compound 2 1000 mg QD): 1200 ± 284 ng/mL
Tmax ([4]; Compound 2 1000 mg QD): 0.9 (0.8-2.0) h
